Data taken from US20120270819A1, “USE OF COMPOUNDS WITH SGLT-1/SGLT-2 INHIBITOR ACTIVITY FOR PRODUCING MEDICAMENTS FOR TREATMENT OF BONE DISEASE” (SANOFI, priority 2009, published 2012).

Test system: female Sprague-Dawley mature and young adult rats
Assay: Biomechanical testing: L3, L4 vertebral compression
Type: in vivo, rat
Settings: L3 + L4 vertebral bodies; for AUC (work to failure) / Apparent Strength / Modulus / Peak Load / Stiffness / Toughness / Yield Load / Yield Stress: mean
Procedure: Biomechanical testing was performed using an 858 Mini Bionix Servohydraulic Test System, Model 242.03. All data was collected using TestWorks® version 3.8A for TestStar™ software, version 4.0C.
At necropsy, all specimens were cleaned of excess tissue (not scraped) and individually wrapped in gauze soaked with saline, covered with plastic film and placed in an appropriately labelled plastic bag. Bone samples were retained frozen (ca −20° C.) until subjected to the following biomechanical evaluations:
For compression testing, the vertebral body of the vertebrae was isolated by removing the vertebral arch and removing both inter-vertebral discs. The section obtained had two parallel cut surfaces and the trabecular bone exposed.
The L3 and L4 vertebral body were tested in compression to failure. The loading rate was set at 20 mm/min. Load and displacement data were collected and apparent strength and modulus were calculated using the peak load, stiffness, individual vertebral body height and cross sectional area from the pQCT scans. The work to failure was determined from the area under the curve (AUC) and toughness was calculated. Yield load was originally derived using a 0.2% off-set however a 0.1% off-set was considered more appropriate and yield stress was calculated. All data derived from the 0.2% off-set yield load was kept with the study file but not reported.

SMILES: COc1ccc(Cc2c(OC3OC(CO)C(F)C(O)C3O)n[nH]c2C(F)(F)F)cc1 (stereo not drawn) [Example 5 of formula II]
- Yield Stress, percent difference from Vehicle Control (mature adults, 10 mg/kg/day): 2.1%
- AUC (work to failure) (mature adults, 10 mg/kg/day): 21.5 N-mm
- Apparent Strength (mature adults, 10 mg/kg/day): 48.3 MPa
- Modulus (mature adults, 10 mg/kg/day): 2102.6 MPa
- Peak Load (mature adults, 10 mg/kg/day): 375.5 N
- Stiffness (mature adults, 10 mg/kg/day): 5308.6 N/mm
- Toughness (mature adults, 10 mg/kg/day): 0.9 MPa
- Yield Load (mature adults, 10 mg/kg/day): 329.3 N
- Yield Stress (mature adults, 10 mg/kg/day): 42.5 MPa
- AUC (work to failure), percent difference from Vehicle Control (mature adults, 50 mg/kg/day): 22.1%
- Apparent Strength, percent difference from Vehicle Control (mature adults, 50 mg/kg/day): 14.1%
- Modulus, percent difference from Vehicle Control (mature adults, 50 mg/kg/day): 2.5%
- Peak Load, percent difference from Vehicle Control (mature adults, 50 mg/kg/day): 21.6%
- Stiffness, percent difference from Vehicle Control (mature adults, 50 mg/kg/day): 17.8%
- Toughness, percent difference from Vehicle Control (mature adults, 50 mg/kg/day): 20.6%
- Yield Load, percent difference from Vehicle Control (mature adults, 50 mg/kg/day): 16.6%
- Yield Stress, percent difference from Vehicle Control (mature adults, 50 mg/kg/day): 9.2%
- AUC (work to failure) (mature adults, 50 mg/kg/day): 25.4 N-mm
- Apparent Strength (mature adults, 50 mg/kg/day): 53.3 MPa
- Modulus (mature adults, 50 mg/kg/day): 2197.6 MPa
- Peak Load (mature adults, 50 mg/kg/day): 430.6 N
- Stiffness (mature adults, 50 mg/kg/day): 6194.6 N/mm
- Toughness (mature adults, 50 mg/kg/day): 1.1 MPa
- Yield Load (mature adults, 50 mg/kg/day): 368.0 N
- Yield Stress (mature adults, 50 mg/kg/day): 45.5 MPa
- AUC (work to failure), percent difference from Vehicle Control (young adults, 10 mg/kg/day): −9.8%
- Apparent Strength, percent difference from Vehicle Control (young adults, 10 mg/kg/day): 3.5%
- Modulus, percent difference from Vehicle Control (young adults, 10 mg/kg/day): 19.2%
- Peak Load, percent difference from Vehicle Control (young adults, 10 mg/kg/day): 5.2%
- Stiffness, percent difference from Vehicle Control (young adults, 10 mg/kg/day): 12.0%
- Toughness, percent difference from Vehicle Control (young adults, 10 mg/kg/day): −19.6%
- Yield Load, percent difference from Vehicle Control (young adults, 10 mg/kg/day): 8.3%
- Yield Stress, percent difference from Vehicle Control (young adults, 10 mg/kg/day): 6.1%
- AUC (work to failure) (young adults, 10 mg/kg/day): 14.4 N-mm
- Apparent Strength (young adults, 10 mg/kg/day): 34.4 MPa
- Modulus (young adults, 10 mg/kg/day): 1559.1 MPa
- Peak Load (young adults, 10 mg/kg/day): 255.9 N
- Stiffness (young adults, 10 mg/kg/day): 4009.8 N/mm
- Toughness (young adults, 10 mg/kg/day): 0.7 MPa
- Yield Load (young adults, 10 mg/kg/day): 222.5 N
- Yield Stress (young adults, 10 mg/kg/day): 29.9 MPa
- AUC (work to failure), percent difference from Vehicle Control (young adults, 50 mg/kg/day): 2.1%
- Apparent Strength, percent difference from Vehicle Control (young adults, 50 mg/kg/day): 16.4%
- Modulus, percent difference from Vehicle Control (young adults, 50 mg/kg/day): 23.3%
- Peak Load, percent difference from Vehicle Control (young adults, 50 mg/kg/day): 10.2%
- Stiffness, percent difference from Vehicle Control (young adults, 50 mg/kg/day): 10.3%
- Toughness, percent difference from Vehicle Control (young adults, 50 mg/kg/day): 1.5%
- Yield Load, percent difference from Vehicle Control (young adults, 50 mg/kg/day): 9.7%
- Yield Stress, percent difference from Vehicle Control (young adults, 50 mg/kg/day): 15.8%
- AUC (work to failure) (young adults, 50 mg/kg/day): 16.3 N-mm
- Apparent Strength (young adults, 50 mg/kg/day): 38.7 MPa
- Modulus (young adults, 50 mg/kg/day): 1613.3 MPa
- Peak Load (young adults, 50 mg/kg/day): 268.0 N
- Stiffness (young adults, 50 mg/kg/day): 3951.0 N/mm
- Toughness (young adults, 50 mg/kg/day): 0.9 MPa
- Yield Load (young adults, 50 mg/kg/day): 225.4 N
- Yield Stress (young adults, 50 mg/kg/day): 32.7 MPa
